Assay results from patent publication US12662473B2, “Inhibitors for programmed cell necrosis and preparation method therefor and use thereof” (SHANGHAI INSTITUTE OF ORGANIC CHEMISTRY, CHINESE ACADEMY OF …, priority 2019, dated 2026).
Read-outs that look alike come from different tables or passages of the source.

Columns and labels:
FADD−/− Jurkat cells = experiment: TNF-induced programmed cell necrosis inhibition, Cell Titer-Glo viability; format: cell-based; details: Homo sapiens, Jurkat
Description: (§1) The adopted biological assay protocol was: the programmed necroptosis effect of compounds on TNF-induced in FADD (Fas-Associated Death Domain) deficient Jurkat cells and L929 cells.
(§2) In order to verify the inhibitory effect of the compounds of the present invention on programmed cell necrosis at the cellular level, cell types closely related to the RIP1 pathway, namely FADD deficient Jurkat cells (human peripheral blood leukemia T cell line) and L929 cells, were selected. Two different stimulation methods were used: tumor necrosis factor (TNFα) used alone, or TNFα used in combination with mitochondria-derived cysteine aspartate activator (SMAC). Cells viability was calculated by detecting chemiluminescence values, and the biological activity of the compound for inhibiting programmed cell necrosis can be obtained.
(§3) Methods: FADD deficient Jurkat cells: FADD deficient Jurkat cells (human peripheral blood leukemia T cell line) were cultured in vitro. After growing to the logarithmic growth phase, the cells were collected, centrifuged at 1000 rpm for 5 min, the supernatant was discarded, and the cell concentration was adjusted to 2.5×10^5/mL. Cells were seeded into 384-well plates, 40 μl per well. 5 μL of Smac (50 nM) diluted in cell culture medium and 5 μL of each compound were added to the corresponding wells. After pretreatment at 37° C. for 1 h, 5 μL of TNFα (50 ng/mL) diluted in cell culture medium was added to each well of the stimulation group, and 5 μL of the culture medium was added to the control group. The plate was cultured in a cell incubator (37° C., 5% CO2) for 14 h, and 15 μl of Cell Titer-Glo solution was added to each well, then incubated for 30 min at room temperature, and intracellular ATP level was measured by detecting luminescence. The unstimulated DMSO control wells were taken as 100% cell viability. L929 cells: The L929 cells (mouse fibroblasts) were cultured in vitro, digested and diluted to 6.25×10^4/ml, and the cells were seeded into 384-well plates, 40 μl per well. The plate was placed in a cell incubator (37° C., 5% CO2) for 12 hours. 5 μL of Smac (500 nM) diluted in cell culture medium and 5 μL of each compound were added to the corresponding wells. After pretreatment at 37° C. for 1 h, 5 μL of TNFα (500 ng/mL) diluted in cell culture medium was added to each well of the stimulation group, and 5 μL of the culture medium was added to the control group. After the plate was cultured for 14 h in a cell incubator (37° C., 5% CO2), 15 μl of Cell Titer-Glo solution was added to each well. The plate was incubated at room temperature for 30 min, and intracellular ATP level was measured by detecting luminescence. The unstimulated DMSO control wells were taken as 100% cell viability. EC50 values of the compounds were calculated using Prism Graphpad statistical software.
FADD deficient Jurkat cells: FADD deficient Jurkat cells (human peripheral blood leukemia T cell line) were cultured in vitro. After growing to the logarithmic growth phase, the cells were collected, centrifuged at 1000 rpm for 5 min, the supernatant was discarded, and the cell concentration was adjusted to 2.5×10^5/mL. Cells were seeded into 384-well plates, 40 μl per well. 5 μL of Smac (50 nM) diluted in cell culture medium and 5 μL of each compound were added to the corresponding wells. After pretreatment at 37° C. for 1 h, 5 μL of TNFα (50 ng/mL) diluted in cell culture medium was added to each well of the stimulation group, and 5 μL of the culture medium was added to the control group. After the plate was cultured in a cell incubator (37° C., 5% CO2) for 14 h, 15 μl of Cell Titer-Glo solution was added to each well. The mixture was incubated for 30 min at room temperature, and intracellular ATP level was measured by detecting luminescence. The unstimulated DMSO control wells were taken as 100% cell viability.

L929 cells = experiment: as above; format: cell-based, mouse; details: Mus musculus, read-out: EC50 inhibitory activity on programmed cell necrosis
Description: as §1, §2, §3
L929 cells: The L929 cells (mouse fibroblasts) were cultured in vitro, digested and diluted to 6.25×10^4/ml, and the cells were seeded into 384-well plates, 40 μl per well. The plate was placed in a cell incubator (37° C., 5% CO2) for 12 hours. 5 μL of Smac (500 nM) diluted in cell culture medium and 5 μL of each compound were added to the corresponding wells. After pretreatment at 37° C. for 1 h, 5 μL of TNFα (500 ng/mL) diluted in cell culture medium was added to each well of the stimulation group, and 5 μL of the culture medium was added to the control group. After the plate was cultured for 14 h in a cell incubator (37° C., 5% CO2), and 15 μl of Cell Titer-Glo solution was added to each well, then incubated at room temperature for 30 min, and intracellular ATP level was measured by detecting luminescence. The unstimulated DMSO control wells were taken as 100% cell viability.

[1] = 14 h, TNFa + SM164, read-out: EC50 inhibitory activity on programmed cell necrosis
[2] = TNFa, read-out: EC50 inhibitory activity on programmed cell necrosis
[3] = L929, 14 h, L929 cells (mouse), TNFa + SM164

Compound | EC50 (FADD−/− Jurkat cells; [1]) [nM] | EC50 (FADD−/− Jurkat cells; [2]) [nM] | EC50 (L929 cells; [3]) [nM] | EC50 (L929 cells; L929, L929 cells (mouse), TNFa) [nM]
CC(C)(Oc1ccc(Cl)cc1F)C(=O)N1CCCC1c1ccc(C(N)=O)cc1 (centres unmarked) [QY-5-85] | > 10000 | 5340 | > 10000 | > 10000
Cc1ccc(C2CC=NN2C(=O)C(C)(C)Oc2ccc(Cl)cc2F)cc1 (centres unmarked) [QY-6-47] | 90 | 5 | 49 | 18
CC(C)(Oc1ccc(Cl)cc1F)C(=O)N1CCC[C@H]1c1cc(F)cc(F)c1 [QY-6-60] | 707 | 17 | 402 | 130
CC(C)(Oc1ccc(Cl)cc1F)C(=O)N1CCC[C@H]1c1ccc(F)c(F)c1 [QY-6-61] | 379 | 12 | 218 | 75
CC(C)(Oc1ccc(Cl)cc1F)C(=O)N1CCC[C@H]1c1ccc(F)cc1 [QY-6-62] | 117 | 3 | 174 | 44
CNC(=O)c1ccc(OC(C)(C)C(=O)N2CCCC2c2ccc(C)cc2)c(F)c1 (centres unmarked) [QY-6-63] | > 10000 | 4290 | 7800 | 3150
CC(C)(Oc1ccc(Cl)cc1)C(=O)N1CCC[C@H]1c1ccccc1 [QY-6-83] | 613 | 56 | 323 | 40
CC(C)(Oc1ccc(Cl)cc1F)C(=O)N1CCC[C@H]1c1ccccc1 [QY-6-84] | 439 | 27 | 216 | 25
[2H]c1c([2H])c([C@]2([2H])CCCN2C(=O)C(C)(C)Oc2ccc(Cl)cc2F)c([2H])c([2H])c1C([2H])([2H])[2H] [QY-7-7] | 200 | 5 | 24 | 1
COc1cc(OC(C)(C)C(=O)N2N=CCC2c2ccc(C)cc2)ccc1Cl (centres unmarked) [QY-7-101] | 1100 | 630 | 10 | 11
CC(C)(Oc1ccc(Cl)cc1F)C(=O)N1N=CCC1c1ccc(Cl)cc1 (centres unmarked) [QY-8-101] | 692 | 15 | 15 | 5.8
COc1cc(Cl)ccc1OC(C)(C)C(=O)N1CCCC1c1ccc(C)cc1 (centres unmarked) [QY-9-8] | 1.6 | 0.43 | 138 | 0.44
COc1cc(Cl)ccc1OC(C)(C)C(=O)N1N=CCC1c1ccc(Cl)cc1 (centres unmarked) [QY-9-32] | 842 | 26.6 |  | 35.7
COc1cc(Cl)ccc1OC(C)(C)C(=O)N1CCCC1c1ccc(Cl)cc1 (centres unmarked) [QY-9-43] | 1150 | 0.16 |  | 21
COc1cc(Cl)ccc1OC(C)(C)C(=O)N1CCC[C@H]1c1ccc(Cl)cc1 [QY-10-1] | > 10000 | > 10000 | 3.6 | 0.79
CC(=O)Nc1cc(Cl)ccc1OC(C)(C)C(=O)N1CCCC1c1ccc(Cl)cc1 (centres unmarked) [QY-10-92] | > 10000 | > 10000 | > 10000 | > 10000
COc1cc(Cl)ccc1OC(C)(C)C(=O)N1N=CCC1c1ccc(C)cc1 (centres unmarked) [QY-10-96] | 633 | 13.4 | 6.31 | 0.151
COc1cc(Cl)ccc1NC(C)(C)C(=O)N1CCCC1c1ccc(Cl)cc1 (centres unmarked) [QY-10-104] | 794 | 106 | 66.2 | 13.6

Compound | EC50 (FADD−/− Jurkat cells; [1]) [nM] | EC50 (FADD−/− Jurkat cells; [2]) [nM] | EC50 (L929 cells; [3]) [nM] | EC50 (L929 cells; L929, L929 cells (mouse), TNFa) [nM]
[2H]c1c([2H])c([C@]2([2H])CCCN2C(=O)C(C)(C)Oc2ccc(Cl)cc2OC)c([2H])c([2H])c1C([2H])([2H])[2H] [QY-11-1] |  | 4.05 | 2.66 | 0.0803
CC(C)(C(=O)N1CCCC1c1ccc(Cl)cc1)C1N=Nc2ccc(Cl)cc21 (centres unmarked) [QY-11-9A] | > 10000 | > 10000 | > 10000 | 2530
CC(C)(C(=O)N1CCCC1c1ccc(Cl)cc1)n1ncc2cc(Cl)ccc21 (centres unmarked) [QY-11-9B] | 3340 | 2830 | 3440 | 0.00171
CC(C)(C(=O)N1CCCC1c1ccc(Cl)cc1)n1nnc2ccc(Cl)cc21 (centres unmarked) [QY-11-11A] | > 10000 | > 10000 | 0.0772 | 0.0188
CC(C)(C(=O)N1CCCC1c1ccc(Cl)cc1)n1nnc2cc(Cl)ccc21 (centres unmarked) [QY-11-11B] | > 10000 | > 10000 | 0.12 | 0.0192
CC(C)(C(=O)N1CCCC1c1ccc(Cl)cc1)n1ccc2cc(Cl)ccc21 (centres unmarked) [QY-11-15B] | > 10000 | > 10000 | > 10000 | > 10000
CC(C)(C(=O)N1CCCC1c1ccc(Cl)cc1)n1cnc2ccc(Cl)cc21 (centres unmarked) [QY-11-16A] | > 10000 | > 10000 | > 10000 | > 10000
CC(C)(C(=O)N1CCCC1c1ccc(Cl)cc1)n1cnc2cc(Cl)ccc21 (centres unmarked) [QY-11-16B] | > 10000 | > 10000 | > 10000 | > 10000
CC(C)(Oc1ccc(C#N)cc1)C(=O)N1CCCC1c1ccc(Cl)cc1 (centres unmarked) [QY-11-36] | 885 | 137 | 99.5 | 
CC(C)(Oc1ccc2ncsc2c1)C(=O)N1CCCC1c1ccc(Cl)cc1 (centres unmarked) [QY-11-44] | 1320 | 212 | 677 | 0.0105
CC(C)(Oc1ccc(C#N)cc1F)C(=O)N1CCCC1c1ccc(Cl)cc1 (centres unmarked) [QY-11-45] | 915 | 139 | 108 | 0.7
COc1cc(C#N)ccc1OC(C)(C)C(=O)N1CCCC1c1ccc(Cl)cc1 (centres unmarked) [QY-12-11] | 178 | 6.72 | 16.6 | 6.06
[2H]c1c([2H])c([C@]2([2H])CCCN2C(=O)C(C)(C)Oc2ccc(C#N)cc2OC)c([2H])c([2H])c1C([2H])([2H])[2H] [QY-12-14] | 45.3 | 3.65 | 7.63 | 3.16
Cn1cnc2ccc(OC(C)(C)C(=O)N3CCCC3c3ccc(Cl)cc3)cc21 (centres unmarked) [QY-12-32] | 2420 | 535 | 1160 | 243
Cc1ccc(C2CCCN2C(=O)C(C)(C)Oc2ccc(Cl)cn2)cc1 (centres unmarked) [QY-13-42] | 4900 | 0.0395 | 322 | 102
Cc1ccc(C2CCCN2C(=O)C(C)(C)Oc2ccc(C#N)cn2)cc1 (centres unmarked) [QY-13-68] | 2420 | 27 | 4.52 | 2.06
Cc1ccc(C2CCCN2C(=O)C(C)(C)Oc2ncc(Cl)cn2)cc1 (centres unmarked) [QY-13-70] | > 10000 | 477 | 1930 | 221
Cc1ccc(C2CCCN2C(=O)C(C)(C)Nc2ncc(Cl)cn2)cc1 (centres unmarked) [QY-13-86] | > 10000 | > 10000 | > 10000 | > 10000
